Like-named read-outs stand apart in the source and are kept apart here.
Legend:
in vitro [1] = details: African green monkey
in vitro [2] = details: Mesocricetus auratus (hamster)
[3] = system: Hantaan (HTNV) (strain 76–118); test: microbe, parasite or virus in culture; format: cell-based, Hantaan virus; details: for EC50: read-out: HTNV EC50
in vitro [4] = details: human
in vitro [5] = details: Bos taurus (cattle)
in vitro [6] = details: Cercopithecus aethiops (monkey)
HTNV [7] = format: cell-based, Hantaan virus
HTNV [8] = details: read-out: EC50 against HTNV; cited from earlier work
[9] = Orthohantavirus hantanense, Vero C1008, 168 h

Structure (SMILES)	CC50 (in vitro [1])	CC50 (in vitro [2])	EC50 [3, 9]	CC50 (in vitro [4])	CC50 (in vitro [5])	CC50 (in vitro [6])	further results
Nc1ccc(-n2nnc3cc(Cl)c(Cl)cc32)cc1 [1a]	> 30 µM	> 100 µM	> 30 µM	≥ 100 µM			
CC(=O)Nc1ccc(-n2nnc3cc(Cl)c(Cl)cc32)cc1 [1b]	20 µM	53 µM	> 20 µM				
CCC(=O)Nc1ccc(-n2nnc3cc(Cl)c(Cl)cc32)cc1 [1c]	20 µM	54 µM	> 20 µM		≥ 100 µM		
CCCC(=O)N(C(=O)CCC)c1ccc(-n2nnc3cc(Cl)c(Cl)cc32)cc1 [1e]	25 µM	16 µM	> 25 µM				
Cc1ccc(C(=O)Nc2ccc(-n3nnc4cc(Cl)c(Cl)cc43)cc2)cc1 [1f]	> 30 µM	≥ 100 µM	> 30 µM				
O=C(Nc1ccc(-n2nnc3cc(Cl)c(Cl)cc32)cc1)c1ccc(Cl)cc1 [1g]	> 30 µM	> 100 µM	≥ 30 µM			≥ 100 µM	
O=C(Nc1ccc(-n2nnc3cc(Cl)c(Cl)cc32)cc1)c1ccc([N+](=O)[O-])cc1 [1h]	> 30 µM	96 µM	21 µM				
COc1ccc(C(=O)Nc2ccc(-n3nnc4cc(Cl)c(Cl)cc43)cc2)cc1 [1i]	> 30 µM	> 100 µM	> 30 µM				
COc1cc(C(=O)Nc2ccc(-n3nnc4cc(Cl)c(Cl)cc43)cc2)cc(OC)c1OC [1j]	> 30 µM	> 100 µM	> 30 µM				
Nc1ccc(-n2nc3cc(Cl)c(Cl)cc3n2)cc1 [2a]	> 30 µM	> 100 µM	> 30 µM			≥ 100 µM	
CC(=O)Nc1ccc(-n2nc3cc(Cl)c(Cl)cc3n2)cc1 [2b]	> 30 µM	> 100 µM	> 30 µM				
CCC(=O)Nc1ccc(-n2nc3cc(Cl)c(Cl)cc3n2)cc1 [2c]	> 30 µM	> 100 µM	> 30 µM				
CCC(=O)N(C(=O)CC)c1ccc(-n2nc3cc(Cl)c(Cl)cc3n2)cc1 [2d]	> 30 µM	26 µM	> 30 µM		73 µM	≥ 100 µM	
CCCC(=O)N(C(=O)CCC)c1ccc(-n2nc3cc(Cl)c(Cl)cc3n2)cc1 [2e]	> 30 µM	62 µM	> 30 µM			≥ 100 µM	
Cc1ccc(C(=O)Nc2ccc(-n3nc4cc(Cl)c(Cl)cc4n3)cc2)cc1 [2f]	> 30 µM	> 100 µM	22 µM				
O=C(Nc1ccc(-n2nc3cc(Cl)c(Cl)cc3n2)cc1)c1ccc(Cl)cc1 [2g]	> 30 µM	> 100 µM	> 30 µM			95 µM	
O=C(Nc1ccc(-n2nc3cc(Cl)c(Cl)cc3n2)cc1)c1ccc([N+](=O)[O-])cc1 [2h]	> 30 µM	> 100 µM	> 30 µM				
COc1ccc(C(=O)Nc2ccc(-n3nc4cc(Cl)c(Cl)cc4n3)cc2)cc1 [2i]	> 30 µM	> 100 µM	> 30 µM	≥ 100 µM			
COc1cc(C(=O)Nc2ccc(-n3nc4cc(Cl)c(Cl)cc4n3)cc2)cc(OC)c1OC [2j]	> 30 µM	35 µM	≤ 5 µM				effect on viral titer (result in words) (HTNV [7]): significant reduction of viral titer; reduction of viral titer (HTNV [7]): 2.14 log10; Selectivity Index [3]: > 7.5; EC50 [3]: 4 µM

Structure (SMILES)	CC50 (in vitro [1])	CC50 (in vitro [2])	EC50 [3, 9]	CC50 (in vitro [4])	CC50 (in vitro [5])	CC50 (in vitro [6])	further results
CCNC(=O)Nc1ccc(-n2nc3cc(Cl)c(Cl)cc3n2)cc1 [2k]	> 30 µM	> 100 µM	26 µM				
CCCNC(=O)Nc1ccc(-n2nc3cc(Cl)c(Cl)cc3n2)cc1 [2l]	30 µM	40 µM	≤ 5 µM				effect on viral titer (result in words) (HTNV [7]): significant reduction of viral titer; Selectivity Index [3]: 6; EC50 [3]: 5 µM
CCCCNC(=O)Nc1ccc(-n2nc3cc(Cl)c(Cl)cc3n2)cc1 [2m]	> 30 µM	> 100 µM	> 30 µM			95 µM	
O=C(Nc1ccc(-n2nc3cc(Cl)c(Cl)cc3n2)cc1)NC1CCCCC1 [2n]	> 30 µM	71 µM	≤ 5 µM				effect on viral titer (result in words) (HTNV [7]): significant reduction of viral titer; Selectivity Index [3]: > 7.5; EC50 [3]: 4 µM
Cc1ccc(C(=O)Nc2ccc(-n3nc4ccccc4n3)cc2)cc1 [3f, N-(4-(2H-benzo[d][1,2,3]triazol-2-yl)phenyl)-4-methylbenzamide]	> 30 µM	> 100 µM	> 30 µM	> 100 µM	> 100 µM	> 100 µM	melting point: 266 to 268 °C
COc1cc(C(=O)Nc2ccc(-n3nc4ccccc4n3)cc2)cc(OC)c1OC [3j, N-(4-(2H-benzo[d][1,2,3]triazol-2-yl)phenyl)-3,4,5-trimethoxybenzamide]	> 30 µM	> 100 µM	> 30 µM	> 100 µM	> 100 µM	> 100 µM	melting point: 227 to 229 °C
CCNC(=O)Nc1ccc(-n2nc3ccccc3n2)cc1 [3k]	> 30 µM	> 100 µM	> 30 µM		> 100 µM	> 100 µM	
CCCNC(=O)Nc1ccc(-n2nc3ccccc3n2)cc1 [3l]	> 30 µM	> 100 µM	> 30 µM	> 100 µM	> 100 µM	> 100 µM	
CCCCNC(=O)Nc1ccc(-n2nc3ccccc3n2)cc1 [3m]	> 30 µM	> 100 µM	> 30 µM	> 100 µM	> 100 µM	> 100 µM	
O=C(Nc1ccc(-n2nc3ccccc3n2)cc1)NC1CCCCC1 [3n]	> 30 µM	> 100 µM	> 30 µM	> 100 µM	> 100 µM	95 µM	
Cc1ccc(C(=O)Nc2ccc(-n3nc4cc(C)c(C)cc4n3)cc2)cc1 [4f, N-(4-(5,6-dimethyl-2H-benzo[d][1,2,3]triazol-2-yl)phenyl)-4-methylbenzamide]	> 30 µM	> 100 µM	> 30 µM	> 100 µM	> 100 µM	> 100 µM	melting point: 295 to 296 °C
COc1cc(C(=O)Nc2ccc(-n3nc4cc(C)c(C)cc4n3)cc2)cc(OC)c1OC [4j, N-(4-(5,6-dimethyl-2H-benzo[d][1,2,3]triazol-2-yl)phenyl)-3,4,5-trimethoxybenzamide]	> 30 µM	> 100 µM	> 30 µM		> 100 µM	> 100 µM	melting point: 272 to 273 °C
CCNC(=O)Nc1ccc(-n2nc3cc(C)c(C)cc3n2)cc1 [4k]	> 30 µM	> 100 µM	> 30 µM	> 100 µM	> 100 µM	> 100 µM	
CCCNC(=O)Nc1ccc(-n2nc3cc(C)c(C)cc3n2)cc1 [4l]	> 30 µM	> 100 µM	> 30 µM	> 100 µM	> 100 µM	> 100 µM	
CCCCNC(=O)Nc1ccc(-n2nc3cc(C)c(C)cc3n2)cc1 [4m]	> 30 µM	> 100 µM	> 30 µM	> 100 µM	> 100 µM	> 100 µM	
Cc1cc2nn(-c3ccc(NC(=O)NC4CCCCC4)cc3)nc2cc1C [4n]	> 30 µM	> 100 µM	> 30 µM	> 100 µM	> 100 µM	95 µM	
C#Cc1ncn([C@@H]2O[C@H](CO)[C@@H](O)[C@H]2O)n1 [ETAR, 1-beta-d-ribofuranosyl-3-ethynyl-[1,2,4] triazole]							EC50 (HTNV [8]): 10 µM
NC(=O)c1nc(F)c[nH]c1=O [Favipiravir]							EC50 (HTNV [8]): 151 µM
NC(=O)c1ncn([C@@H]2O[C@H](CO)[C@@H](O)[C@H]2O)n1 [RBV, Ribavirin, reference compound]	> 100 µM		37 µM				effect on viral titer (result in words) (HTNV [7]; 50 µM): significant decline in viral titer; Selectivity Index [3]: > 2

Source: paper PMC7019903 (Viruses, 2020)
